In brackets after ≈: the same amount, converted by molar mass.
What was measured:
Bacillaceae = experiment: Minimum inhibitory concentration (MIC), broth dilution; assay type: cell-based; settings: 24 h; strain 1722
Protocol: (§1) Different bacterial species isolated from patients are employed.
(§2) Compounds AB5 and AB6 are dissolved in ethanol (ethyl alcohol 95°, C. Erba) and all the subsequent dilutions performed in distilled water. The chlorhexidine is diluted from the commercial product already dissolved in distilled water.
(§3) The broth dilution is employed to assess MIC values for all strains. Sterile microtiter plates with U bottom with 96 wells are employed. 0.1 Ml of liquid medium (tryptose Roche broth) are put in each well, the plates are kept at -20° and, before use, at room temperature.
(§4) The disinfectant agent is put in the wells of the row 2 at a concentration of 4000 mcg/ml (real 2000 mcg/ml) and then with a 100 µl micro- pipette dilutions are performed from row 2 to row 11.
(§5) The row 1 is the control of the medium and the row 12 is the control for the fertility of the medium itself.
(§6) After having performed the dilutions, 0.01 ml of a 24 hrs bacterial broth culture (previously diluted at 10^-4 for Gram-negative strains and 10-2 for Gram-positive ones) are placed in all wells, from the rows 2 to 12. After the inoculation, the plate is hermetical ly sealed with adhesive transparent band and an hole is done with a needle. The plates are kept at 35° for 24 hours and a macroscopic reading is carried out; in case of non uniform reading, taking place only for chlorhexidine, the cultures from the wells are plated on agar-heart-brain medium (Sclavo) through Dinatech apparatus (head "Inoculum 96") and the reading of the growth is carried out in the following 24 hours.

E.coli = experiment: as above; assay type: cell-based; settings: Escherichia coli, 24 h
Protocol: as §1, §2, §3, §4, §5, §6

Enterobacter = experiment: as above; assay type: cell-based; settings: 24 h, strain 2643
Protocol: as §1, §2, §3, §4, §5, §6

Indole-positive Proteus [1] = experiment: as above; assay type: cell-based; settings: 24 h
Protocol: as §1, §2, §3, §4, §5, §6

Pseudomonas aeruginosa [2] = experiment: as above; assay type: cell-based; settings: 24 h
Protocol: as §1, §2, §3, §4, §5, §6

Salmonella sp. [3] = experiment: as above; assay type: cell-based; settings: 24 h, strain 2482
Protocol: as §1, §2, §3, §4, §5, §6

Serratia marcescens [4] = experiment: as above; assay type: cell-based; settings: 24 h, strain 1814
Protocol: as §1, §2, §3, §4, §5, §6

Staph. aureus [5] = experiment: as above; assay type: cell-based; settings: Staphylococcus aureus, 24 h; strain 2672
Protocol: as §1, §2, §3, §4, §5, §6

E. coli = experiment: Bactericide activity at different contact times; assay type: cell-based; set-up: key to Bactericide action (growth / no growth): + = growth; - = no growth; settings: 100 p.p.m.
Protocol: as §1, §2
(§7) It is assessed through Dinatech apparatus with "Inoculum 96" head.
(§8) Chemical compounds at established concentra tions are placed in amount of 1 ml in the con tainers, the bacterial inoculum is then added in amount of 0.1 ml (24 hrs culture) and at pre-established times (3,5,10,30,60 and 120 mi nutes), through the head, the mixture compound/ disinfectant agent is transferred in solid medium (agar-heart-brain medium). After incubation at 35°C for 24 hours, the reading is carried out. The tests are repeated in presence of human serum at the concentration of 10%.

Indole-positive Proteus [6] = experiment: Bactericide activity at different contact times; assay type: cell-based; set-up: key to Bactericide action (growth / no growth): + = growth; - = no growth; settings: 100 p.p.m.
Protocol: as §1, §2, §7, §8

Serratia marcescens [7] = experiment: Bactericide activity at different contact times; assay type: cell-based; set-up: key to Bactericide action (growth / no growth): + = growth; - = no growth; settings: 100 p.p.m.
Protocol: as §1, §2, §7, §8

Pseudomonas aeruginosa [8] = experiment: Bactericide activity at different contact times; assay type: cell-based; set-up: key to Bactericide action (growth / no growth) / Bactericide activity (growth / no growth), serum interference test: + = growth; - = no growth; settings: 100 p.p.m.
Protocol: as §1, §2, §7, §8

B. subtilis = experiment: Bactericide activity at different contact times; assay type: cell-based; set-up: key: + = growth; - = no growth; settings: 100 p.p.m.
Protocol: as §1, §2, §7, §8

Salmonella sp. [9] = experiment: Bactericide activity at different contact times; assay type: cell-based; set-up: key: + = growth; - = no growth; settings: 100 p.p.m.
Protocol: as §1, §2, §7, §8

Staph. aureus [10] = experiment: Bactericide activity at different contact times; assay type: cell-based; set-up: key: + = growth; - = no growth; settings: 100 p.p.m.
Protocol: as §1, §2, §7, §8

[11] = Toxicity, LD50 by intraperitoneal route; settings: mouse, in vivo, ip, mice

For `NC(=NCl)c1ccccc1` [AB5], the MIC (Bacillaceae) was 15.6 mg/L (≈ 101 µM), the MIC (E.coli; strain 2094) was 250 mg/L (≈ 1620 µM) and the MIC (E.coli; strain 2096) was 250 mg/L (≈ 1620 µM). For the same compound, the MIC (E.coli; strain 2117) was 250 mg/L (≈ 1620 µM), the MIC (E.coli; strain 2456) was 500 mg/L (≈ 3230 µM) and the MIC (E.coli; strain 2568) was 500 mg/L (≈ 3230 µM). The MIC (Enterobacter) was 250 mg/L (≈ 1620 µM), the MIC (Indole-positive Proteus [1]; strain 2075) was 250 mg/L (≈ 1620 µM) and the MIC (Indole-positive Proteus [1]; strain 2083) was 125 mg/L (≈ 809 µM). It also gave an MIC (Indole-positive Proteus [1]; strain 2105) of 500 mg/L (≈ 3230 µM), an MIC (Indole-positive Proteus [1]; strain 2410) of 250 mg/L (≈ 1620 µM) and an MIC (Indole-positive Proteus [1]; strain 2447) of 500 mg/L (≈ 3230 µM). For the same compound, the MIC (Indole-positive Proteus [1]; strain 2674) was 500 mg/L (≈ 3230 µM), the MIC (Pseudomonas aeruginosa [2]; strain 2084) was 250 mg/L (≈ 1620 µM) and the MIC (Pseudomonas aeruginosa [2]; strain 2458) was 500 mg/L (≈ 3230 µM). For the same compound, the MIC (Pseudomonas aeruginosa [2]; strain 2488) was 250 mg/L (≈ 1620 µM), the MIC (Pseudomonas aeruginosa [2]; strain 2508) was 500 mg/L (≈ 3230 µM) and the MIC (Pseudomonas aeruginosa [2]; strain 2509) was 250 mg/L (≈ 1620 µM). For the same compound, the MIC (Pseudomonas aeruginosa [2]; strain 2670) was 500 mg/L (≈ 3230 µM), the MIC (Salmonella sp. [3]) was 250 mg/L (≈ 1620 µM) and the MIC (Serratia marcescens [4]) was 31.2 mg/L (≈ 202 µM). For the same compound, the MIC (Staph. aureus [5]) was 250 mg/L (≈ 1620 µM), the “contact time for total bactericide activity” value (from here on “contact time”) (E. coli) was at most 3 min and the “Bactericide action (growth / no growth)” value (E. coli; contact time 3 min) was “-”. For the same compound, the “Bactericide action (growth / no growth)” value (E. coli; contact time 5 min) was “-”, the “Bactericide action (growth / no growth)” value (E. coli; contact time 10 min) was “-” and the “Bactericide action (growth / no growth)” value (E. coli; contact time 30 min) was “-”. For the same compound, the “Bactericide action (growth / no growth)” value (E. coli; contact time 60 min) was “-”, the “Bactericide action (growth / no growth)” value (E. coli; contact time 120 min) was “-” and the “contact time” value (Indole-positive Proteus [6]) was 60 to 120 min. The “Bactericide action (growth / no growth)” value (Indole-positive Proteus [6]; contact time 3 min) was “+”, the “Bactericide action (growth / no growth)” value (Indole-positive Proteus [6]; contact time 5 min) was “+” and the “Bactericide action (growth / no growth)” value (Indole-positive Proteus [6]; contact time 10 min) was “-”. The “Bactericide action (growth / no growth)” value (Indole-positive Proteus [6]; contact time 30 min) was “-”, the “Bactericide action (growth / no growth)” value (Indole-positive Proteus [6]; contact time 60 min) was “-” and the “Bactericide action (growth / no growth)” value (Indole-positive Proteus [6]; contact time 120 min) was “-”. The “Bactericide action (growth / no growth)” value (Serratia marcescens [7]; contact time 3 min) was “-”, the “Bactericide action (growth / no growth)” value (Serratia marcescens [7]; contact time 5 min) was “-” and the “Bactericide action (growth / no growth)” value (Serratia marcescens [7]; contact time 10 min) was “-”. The “Bactericide action (growth / no growth)” value (Serratia marcescens [7]; contact time 30 min) was “-”, the “Bactericide action (growth / no growth)” value (Serratia marcescens [7]; contact time 60 min) was “-” and the “Bactericide action (growth / no growth)” value (Serratia marcescens [7]; contact time 120 min) was “-”. For the same compound, the “contact time” value (Pseudomonas aeruginosa [8]) was 60 to 120 min, the “Bactericide action (growth / no growth)” value (Pseudomonas aeruginosa [8]; contact time 3 min) was “+” and the “Bactericide action (growth / no growth)” value (Pseudomonas aeruginosa [8]; contact time 5 min) was “+”. For the same compound, the “Bactericide action (growth / no growth)” value (Pseudomonas aeruginosa [8]; contact time 10 min) was “+”, the “Bactericide action (growth / no growth)” value (Pseudomonas aeruginosa [8]; contact time 30 min) was “+” and the “Bactericide action (growth / no growth)” value (Pseudomonas aeruginosa [8]; contact time 60 min) was “+”. For the same compound, the “Bactericide action (growth / no growth)” value (Pseudomonas aeruginosa [8]; contact time 120 min) was “-”, the “Bactericide action (growth / no growth)” value (B. subtilis; contact time 3 min) was “-” and the “Bactericide action (growth / no growth)” value (B. subtilis; contact time 5 min) was “-”. The “Bactericide action (growth / no growth)” value (B. subtilis; contact time 10 min) was “-”, the “Bactericide action (growth / no growth)” value (B. subtilis; contact time 30 min) was “-” and the “Bactericide action (growth / no growth)” value (B. subtilis; contact time 60 min) was “-”. For the same compound, the “Bactericide action (growth / no growth)” value (B. subtilis; contact time 120 min) was “-”, the “Bactericide action (growth / no growth)” value (Salmonella sp. [9]; contact time 3 min) was “+” and the “Bactericide action (growth / no growth)” value (Salmonella sp. [9]; contact time 5 min) was “+”. For the same compound, the “Bactericide action (growth / no growth)” value (Salmonella sp. [9]; contact time 10 min) was “-”, the “Bactericide action (growth / no growth)” value (Salmonella sp. [9]; contact time 30 min) was “-” and the “Bactericide action (growth / no growth)” value (Salmonella sp. [9]; contact time 60 min) was “-”. The “Bactericide action (growth / no growth)” value (Salmonella sp. [9]; contact time 120 min) was “-”, the “Bactericide action (growth / no growth)” value (Staph. aureus [10]; contact time 3 min) was “+” and the “Bactericide action (growth / no growth)” value (Staph. aureus [10]; contact time 5 min) was “+”. For the same compound, the “Bactericide action (growth / no growth)” value (Staph. aureus [10]; contact time 10 min) was “+”, the “Bactericide action (growth / no growth)” value (Staph. aureus [10]; contact time 30 min) was “+” and the “Bactericide action (growth / no growth)” value (Staph. aureus [10]; contact time 60 min) was “-”. The “Bactericide action (growth / no growth)” value (Staph. aureus [10]; contact time 120 min) was “-” and the LD50 [11] was 85 mg/kg.

Reference: patent EP0076430A1, “Compositions having antimicrobial activity” (MEDEA RESEARCH S.r.l., priority 1981, dated 1983)
